The record followed here is US20160271263A1 (Novo Nordisk A/S, priority 2010, published 2016).

Numbered stars: 1 amine (or outer) side, 2 acyl side, 3 side chain; on linkers, the order of the positions; unused ones are H or OH. Side chains are listed from the residue outwards. Peptide text beside a SMILES is read from it. * marks the point of attachment. C18 diacid = O=C(O)CCCCCCCCCCCCCCCCC(=O)*; γGlu = O=C(O)[C@H](CCC(=O)[*:2])N[*:1]; AEEA = NCCOCCOCC(=O)O

In this assay the target is glucagon receptor (Homo sapiens, UniProt P47871). Briefly: cell-based.
Sequence of glucagon receptor (P47871 26-477): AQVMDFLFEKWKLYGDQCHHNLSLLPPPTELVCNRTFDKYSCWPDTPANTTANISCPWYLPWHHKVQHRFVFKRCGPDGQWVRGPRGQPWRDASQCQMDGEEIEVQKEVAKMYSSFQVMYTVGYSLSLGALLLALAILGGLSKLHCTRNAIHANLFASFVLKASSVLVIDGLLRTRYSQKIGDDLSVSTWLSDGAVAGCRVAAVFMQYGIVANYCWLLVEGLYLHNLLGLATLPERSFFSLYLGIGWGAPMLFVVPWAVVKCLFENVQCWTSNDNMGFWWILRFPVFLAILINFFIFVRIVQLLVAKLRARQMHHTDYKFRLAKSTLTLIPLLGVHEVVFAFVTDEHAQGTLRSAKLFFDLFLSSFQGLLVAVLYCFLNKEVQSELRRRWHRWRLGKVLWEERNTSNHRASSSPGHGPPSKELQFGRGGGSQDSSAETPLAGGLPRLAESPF
Method: The cells (14000 per well) were incubated (37° C., 5% CO2) overnight in 384-well plates. Next day the cells were loaded with a calcium responsive dye that only distributed into the cytoplasm. Probenecid, an inhibitor of the organic anion transporter, was added to prevent the dye from leaving the cell. A PDE inhibitor was added to prevent formatted cAMP from being degraded. […] End point data were collected after 6 minutes. An increase in intracellular cAMP was proportional to an increased in calcium concentrations in the cytoplasm. […] EC50-values were calculated in Prism5.
In the case of `CC(C)C[C@H](NC(=O)[C@H](Cc1ccc(O)cc1)NC(=O)[C@H](CCCCN)NC(=O)[C@H](CO)NC(=O)[C@H](Cc1ccc(O)cc1)NC(=O)[C@H](CC(=O)O)NC(=O)[C@H](CO)NC(=O)[C@@H](NC(=O)[C@H](Cc1ccccc1)NC(=O)[C@@H](NC(=O)CNC(=O)[C@H](CCC(N)=O)NC(=O)[C@H](CO)NC(=O)[C@@H](N)Cc1c[nH]cn1)[C@@H](C)O)[C@@H](C)O)C(=O)N[C@@H](CC(=O)O)C(=O)N[C@@H](CO)C(=O)N[C@@H](CCC(N)=O)C(=O)N[C@@H](CCCNC(=N)N)C(=O)N[C@@H](C)C(=O)N[C@@H](CCC(N)=O)C(=O)N[C@@H](CC(=O)O)C(=O)N[C@@H](Cc1ccccc1)C(=O)N[C@H](C(=O)N[C@@H](CCCCNC(=O)COCCOCCNC(=O)COCCOCCNC(=O)CC[C@H](NC(=O)CCCCCCCCCCCCCCCCC(=O)O)C(=O)O)C(=O)N[C@@H](Cc1c[nH]c2ccccc12)C(=O)N[C@@H](CC(C)C)C(=O)N[C@H](C(=O)N[C@@H](CCCCN)C(=O)N[C@H](C(=O)NCC(=O)N1CCC[C@H]1C(N)=O)[C@@H](C)O)C(C)C)C(C)C` [Example 33, (N^ε24-([2-[2-[2-[[2-[2-[2-[[(4S)-5-hydroxy-4-[(18-hydroxy-18-oxooctadecanoyl)amino]-5-oxopentanoyl]amino]ethoxy]ethoxy]acetyl]amino]ethoxy]ethoxy]acetyl])[Gln^17, Lys^24, Val^27, Lys^28] Glucagonyl)-Gly-Pro amide] (H-HSQGTFTSDYSKYLDSQRAQDFVK([AEEA-AEEA-γGlu-C18 diacid])WLVKTGP-NH2; N-terminus assumed), the 50% effective concentration (EC50) – broadly, the concentration that produces a half-maximal response – was 0.942 nM. To `CC(C)C[C@H](NC(=O)[C@H](Cc1ccc(O)cc1)NC(=O)[C@H](CCCCN)NC(=O)[C@H](CO)NC(=O)[C@H](Cc1ccc(O)cc1)NC(=O)[C@H](CC(=O)O)NC(=O)[C@H](CO)NC(=O)[C@@H](NC(=O)[C@H](Cc1ccccc1)NC(=O)[C@@H](NC(=O)CNC(=O)[C@H](CCC(N)=O)NC(=O)[C@H](CO)NC(=O)[C@@H](N)Cc1c[nH]cn1)[C@@H](C)O)[C@@H](C)O)C(=O)N[C@@H](CC(=O)O)C(=O)N[C@@H](CCCCNC(=O)COCCOCCNC(=O)COCCOCCNC(=O)CC[C@H](NC(=O)CCCCCCCCCCCCCCCCC(=O)O)C(=O)O)C(=O)N[C@@H](CCCCN)C(=O)N[C@@H](CCCNC(=N)N)C(=O)N[C@@H](C)C(=O)N[C@@H](CCC(N)=O)C(=O)N[C@@H](CCC(=O)O)C(=O)N[C@@H](Cc1ccccc1)C(=O)N[C@H](C(=O)N[C@@H](CCC(N)=O)C(=O)N[C@@H](Cc1c[nH]c2ccccc12)C(=O)N[C@@H](CC(C)C)C(=O)N[C@@H](CC(C)C)C(=O)N[C@@H](CC(N)=O)C(=O)N[C@H](C(N)=O)[C@@H](C)O)C(C)C` [Example 34, N^ε16-([2-[2-[2-[[2-[2-[2-[[(4S)-5-hydroxy-4-[(18-hydroxy-18-oxooctadecanoyl)amino]-5-oxopentanoyl]amino]ethoxy]ethoxy]acetyl]amino]ethoxy]ethoxy]acetyl])[Lys^16,Lys^17,Glu^21, Leu^27] Glucagon peptide amide] (H-HSQGTFTSDYSKYLDK([AEEA-AEEA-γGlu-C18 diacid])KRAQEFVQWLLNT-NH2; N-terminus assumed) belongs 0.018 nM; to `CC(C)C[C@H](NC(=O)[C@H](Cc1ccc(O)cc1)NC(=O)[C@H](CCCCN)NC(=O)[C@H](CO)NC(=O)[C@H](Cc1ccc(O)cc1)NC(=O)[C@H](CC(=O)O)NC(=O)[C@H](CO)NC(=O)[C@@H](NC(=O)[C@H](Cc1ccccc1)NC(=O)[C@@H](NC(=O)CNC(=O)[C@H](CCC(N)=O)NC(=O)[C@H](CO)NC(=O)[C@@H](N)Cc1c[nH]cn1)[C@@H](C)O)[C@@H](C)O)C(=O)N[C@@H](CC(=O)O)C(=O)N[C@@H](CO)C(=O)N[C@@H](CCCCN)C(=O)N[C@@H](CCCNC(=N)N)C(=O)N[C@@H](C)C(=O)N[C@@H](CCC(N)=O)C(=O)N[C@@H](CCC(=O)O)C(=O)N[C@@H](Cc1ccccc1)C(=O)N[C@H](C(=O)N[C@@H](CCCCNC(=O)COCCOCCNC(=O)COCCOCCNC(=O)CC[C@H](NC(=O)CCCCCCCCCCCCCCCCC(=O)O)C(=O)O)C(=O)N[C@@H](Cc1c[nH]c2ccccc12)C(=O)N[C@@H](CC(C)C)C(=O)N[C@@H](CC(C)C)C(=O)N[C@@H](CC(N)=O)C(=O)N[C@H](C(N)=O)[C@@H](C)O)C(C)C` [Example 35, N^ε24-([2-[2-[2-[[2-[2-[2-[[(4S)-5-hydroxy-4-[(18-hydroxy-18-oxooctadecanoyl)amino]-5-oxopentanoyl]amino]ethoxy]ethoxy]acetyl]amino]ethoxy]ethoxy]acetyl])[Lys^17,Glu^21, Lys^24, Leu^27]Glucagon peptide amide] (H-HSQGTFTSDYSKYLDSKRAQEFVK([AEEA-AEEA-γGlu-C18 diacid])WLLNT-NH2; N-terminus assumed), 0.016 nM; to `CC(C)C[C@H](NC(=O)[C@H](Cc1ccc(O)cc1)NC(=O)[C@H](CCCCN)NC(=O)[C@H](CO)NC(=O)[C@H](Cc1ccc(O)cc1)NC(=O)[C@H](CC(=O)O)NC(=O)[C@H](CO)NC(=O)[C@@H](NC(=O)[C@H](Cc1ccccc1)NC(=O)[C@@H](NC(=O)CNC(=O)[C@H](CCC(N)=O)NC(=O)[C@H](CO)NC(=O)[C@@H](N)Cc1c[nH]cn1)[C@@H](C)O)[C@@H](C)O)C(=O)N[C@@H](CC(=O)O)C(=O)N[C@@H](CCC(=O)O)C(=O)N[C@@H](CCCCN)C(=O)N[C@@H](C)C(=O)N[C@@H](C)C(=O)N[C@@H](CCC(N)=O)C(=O)N[C@@H](CCC(=O)O)C(=O)N[C@@H](Cc1ccccc1)C(=O)N[C@H](C(=O)N[C@@H](CCCCNC(=O)COCCOCCNC(=O)COCCOCCNC(=O)CC[C@H](NC(=O)CCCCCCCCCCCCCCCCC(=O)O)C(=O)O)C(=O)N[C@@H](Cc1c[nH]c2ccccc12)C(=O)N[C@@H](CC(C)C)C(=O)N[C@@H](CC(C)C)C(=O)N[C@@H](CC(N)=O)C(=O)N[C@H](C(N)=O)[C@@H](C)O)C(C)C` [Example 36, N^ε24-([2-[2-[2-[[2-[2-[2-[[(4S)-5-hydroxy-4-[(18-hydroxy-18-oxooctadecanoyl)amino]-5-oxopentanoyl]amino]ethoxy]ethoxy]acetyl]amino]ethoxy]ethoxy]acetyl])[Glu^16, Lys^17, Ala^18,Glu^21, Lys^24, Leu^27]Glucagon peptide amide] (H-HSQGTFTSDYSKYLDEKAAQEFVK([AEEA-AEEA-γGlu-C18 diacid])WLLNT-NH2; N-terminus assumed), 0.048 nM. `CC(C)C[C@H](NC(=O)[C@H](Cc1ccc(O)cc1)NC(=O)[C@H](CCCCN)NC(=O)[C@H](CO)NC(=O)[C@H](Cc1ccc(O)cc1)NC(=O)[C@H](CC(=O)O)NC(=O)[C@H](CO)NC(=O)[C@@H](NC(=O)[C@H](Cc1ccccc1)NC(=O)[C@@H](NC(=O)CNC(=O)[C@H](CCC(N)=O)NC(=O)[C@H](CO)NC(=O)[C@@H](N)Cc1c[nH]cn1)[C@@H](C)O)[C@@H](C)O)C(=O)N[C@@H](CC(=O)O)C(=O)N[C@@H](CO)C(=O)N[C@@H](CCCCN)C(=O)N[C@@H](C)C(=O)N[C@@H](C)C(=O)N[C@@H](CCC(N)=O)C(=O)N[C@@H](CCC(=O)O)C(=O)N[C@@H](Cc1ccccc1)C(=O)N[C@H](C(=O)N[C@@H](CCCCNC(=O)COCCOCCNC(=O)COCCOCCNC(=O)CC[C@H](NC(=O)CCCCCCCCCCCCCCCCC(=O)O)C(=O)O)C(=O)N[C@@H](Cc1c[nH]c2ccccc12)C(=O)N[C@@H](CC(C)C)C(=O)N[C@@H](CC(C)C)C(=O)N[C@@H](CC(N)=O)C(=O)N[C@H](C(N)=O)[C@@H](C)O)C(C)C` [Example 37, N^ε24-([2-[2-[2-[[2-[2-[2-[[(4S)-5-hydroxy-4-[(18-hydroxy-18-oxooctadecanoyl)amino]-5-oxopentanoyl]amino]ethoxy]ethoxy]acetyl]amino]ethoxy]ethoxy]acetyl])[Lys^17, Ala^18,Glu^21, Lys^24, Leu^27] Glucagon peptide amide] (H-HSQGTFTSDYSKYLDSKAAQEFVK([AEEA-AEEA-γGlu-C18 diacid])WLLNT-NH2; N-terminus assumed) came in with an EC50 of 0.033 nM. As to `CC(C)C[C@H](NC(=O)[C@H](Cc1ccc(O)cc1)NC(=O)[C@H](CCCCN)NC(=O)[C@H](CO)NC(=O)[C@H](Cc1ccc(O)cc1)NC(=O)[C@H](CC(=O)O)NC(=O)[C@H](CO)NC(=O)[C@@H](NC(=O)[C@H](Cc1ccccc1)NC(=O)[C@@H](NC(=O)CNC(=O)[C@H](CCC(N)=O)NC(=O)[C@H](CO)NC(=O)[C@@H](N)Cc1c[nH]cn1)[C@@H](C)O)[C@@H](C)O)C(=O)N[C@@H](CC(=O)O)C(=O)N[C@@H](CCC(=O)O)C(=O)N[C@@H](CCCCN)C(=O)N[C@@H](CCCNC(=N)N)C(=O)N[C@@H](C)C(=O)N[C@@H](CCC(N)=O)C(=O)N[C@@H](CCC(=O)O)C(=O)N[C@@H](Cc1ccccc1)C(=O)N[C@H](C(=O)N[C@@H](CCCCNC(=O)COCCOCCNC(=O)COCCOCCNC(=O)CC[C@H](NC(=O)CCCCCCCCCCCCCCCCC(=O)O)C(=O)O)C(=O)N[C@@H](Cc1c[nH]c2ccccc12)C(=O)N[C@@H](CC(C)C)C(=O)N[C@@H](CC(C)C)C(=O)N[C@@H](CC(N)=O)C(=O)N[C@H](C(N)=O)[C@@H](C)O)C(C)C` [Example 38, N^ε24-([2-[2-[2-[[2-[2-[2-[[(4S)-5-hydroxy-4-[(18-hydroxy-18-oxooctadecanoyl)amino]-5-oxopentanoyl]amino]ethoxy]ethoxy]acetyl]amino]ethoxy]ethoxy]acetyl])[Glu^16, Lys^17, Glu^21, Lys^24,Leu^27] Glucagon peptide amide] (H-HSQGTFTSDYSKYLDEKRAQEFVK([AEEA-AEEA-γGlu-C18 diacid])WLLNT-NH2; N-terminus assumed), the EC50 was 0.015 nM. This EC50 is about 2.2-fold lower than that of the compound before.
